Results from patent US5874442A, “Tricyclic amides useful for inhibition of G-protein function and for treatment of proliferative disease” (Schering-Plough Corporation, priority 1996, dated 1999).
Structures can show the parent of a compound that is named as a salt. Where two headings read alike, the source gives them in different places. Each block holds one compound with its values, some of them ahead of it.

Tests used:
[1] = system: DLD-1 (human colon carcinoma cells); assay: In vivo anti-tumor studies, subcutaneous DLD-1 tumors in athymic nu/nu mice; set-up: species or system athymic nu/nu female mice; conditions: Mus musculus, DLD-1, po, […], read-out: Average % Tumor Inhibition
Protocol: Tumor bearing animals are selected and randomized when the tumors are established. Animals are treated with vehicle (β-cyclodextrin for i.p. or corn oil for p.o.) only or with a compound of the present invention in vehicle four times a day (QID) for 7 days per week for 4 weeks. The percent inhibition of tumor growth relative to vehicle controls is determined by tumor measurements.

[2] = system: SW620-BAG human colon carcinoma cells expressing an activated K-ras gene; assay: Cell mat assay, SW620-BAG tumor cells; assay type: cell-based; conditions: Homo sapiens, SW-620, 336 h
Protocol: (§1) Compound-induced colony inhibition was assayed by addition of serial dilutions of compound directly to the growth medium 24 h after tumor cell planting, and incubating cells for an additional 14 d to allow colony formation. Assays were terminated by rinsing monolayers twice with phosphate-buffered saline (PBS), fixing the monolayers with a 1% glutaraldehyde solution in PBS, then visualizing tumor cells by staining with X-Gal (Price, J., et al., Lineage analysis in the vertebrate nervous system by retrovirus-mediated gene transfer, Proc. Natl. Acad. Sci.84, 156-160(1987)). […] Both IC50 values were obtained by determining the density of tumor cells and mat cells by visual inspection and enumeration of cells per colony and the number of colonies under the microscope.
(§2) Additional assays were carried out by following essentially the same procedure as described above, but with substitution of alternative indicator tumor cell lines in place of the T24-BAG cells. The assays were conducted using either DLD-1-BAG human colon carcinoma cells expressing as activated K-ras gene or SW620-BAG human colon carcinoma cells expressing an activated K-ras gene.

[3] = target: T1, farnesyl protein transferase (FPT) (Rattus norvegicus, UniProt Q02293+Q04631); assay: In vitro enzyme assay: inhibition of farnesyl protein transferase (FPT), [3H]farnesyl transfer to Ras-CVLS; assay type: biochemical
T1 construct: were partially purified from rat brain by ammonium sulfate fractionation; from tissue; host or cells: rat brain (ammonium sulfate fractionation, Q-Sepharose)
Protocol: 1. In vitro enzyme assays:
Inhibition of farnesyl protein transferase and geranylgeranyl protein transferase.
Human farnesyl protein transferase was also expressed in E. coli, using cDNA clones encoding both the a and b subunits. […] Human farnesyl protein transferase was partially-purified from the soluble protein fraction of E. coli as described above. […] Two forms of val^12 -Ha-Ras protein were prepared as substrates for these enzymes, differing in their carboxy terminal sequence. One form terminated in cysteine-valine-leucine-serine (Ras-CVLS) the other in cystein-valine-leucine-leucine (Ras-CVLL). Ras-CVLS is a substrate for the farnesyl protein transferase while Ras-CVLL is a substrate for geranylgeranyl protein transferase I. The cDNAs encoding these proteins were constructed so that the proteins contain an amino-terminal extension of 6 histidine residues. Both proteins were expressed in Escherichia coli and purified using metal chelate affinity chromatography. The radiolabelled isoprenyl pyrophosphate substrates, [^3 H]farnesyl pyrophosphate and [^3 H] geranylgeranyl pyrophosphate, were purchased from DuPont/New England Nuclear.
The reaction was allowed to proceed for 30 minutes at room temperature and then stopped with 0.5 ml of 4% sodium dodecyl sulfate (SDS) followed by 0.5 ml of cold 30% TCA. Samples were allowed to sit on ice for 45 minutes and precipitated Ras protein was then collected on GF/C filter paper mats using a Brandel cell harvester. […] Percent inhibition was calculated relative to the DMSO vehicle control.

[4] = system: Ras-CVLS processing in COS cells; assay: Cell-based COS cell assay: inhibition of Ras processing (Ras-CVLS); set-up: species or system monkey; conditions: Primates, COS, read-out: Inhibition of Ras Processing IC50, Table 3, COS cells
Text: Transient expression of val^12 -Ha-Ras-CVLS and […] -Ha-Ras-CVLL in COS monkey kidney cells: Effect of farnesyl protein transferase inhibitors on Ras processing and on disordered cell growth induced by transforming Ras.
COS monkey kidney cells were transfected by electroporation with the plasmid pSV-SPORT (Gibco/BRL) containing a cDNA insert encoding either Ras-CVLS or Ras-CVLL, leading to transient overexpression of a Ras substrate for either farnesyl protein transferase or geranylgeranyl protein transferase I, respectively (see above).
Following electroporation, cells were plated into 6-well tissue culture dishes containing 1.5 ml of Dulbecco's-modified Eagle's media (GIBCO, Inc.) supplemented with 10% fetal calf serum and the appropriate farnesyl protein transferase inhibitors. After 24 hours, media was removed and fresh media containing the appropriate drugs was re-added.
48 hours after electroporation cells were examined under the microscope to monitor disordered cell growth induced by transforming Ras. Cells expressing transforming Ras become more rounded and refractile and overgrow the monolayer, reminiscent of the transformed phenotype. Cells were then photographed, washed twice with 1 ml of cold phosphate-buffered saline (PBS) and removed from the dish by scraping with a rubber policeman into 1 ml of a buffer containing 25 mM Tris, pH 8.0; 1 mM ethylenediamine tetraacetic acid; 1 mM phenylmethylsulfonyl fluoride; […]; and 0.1 mM pepstatin. Cells were lysed by homogenization and cell debris was removed by centrifugation at 2000× g for 10 min.
Cellular protein was precipitated by addition of ice-cold trichloroacetic acid and redissolved in […] of SDS-electrophoresis sample buffer. […] Proteins resolved on the gels were electroblotted onto nitrocellulose membranes for immunodetection.
After washing, membranes were incubated for one hour at room temperature with a 1:5000 dilution of secondary antibody, rabbit anti-rat lgG conjugated to horseradish peroxidase, in PBS containing 1% fetal calf serum. The presence of processed and unprocessed Ras-CVLS or Ras-CVLL was detected using a colorimetric peroxidase reagent (4-chloro-1-naphthol) as described by the manufacturer (Bio-Rad).

[5] = system: Normal human HEPM fibroblasts; assay: Cell mat assay, normal cells (cell mat); assay type: cell-based; conditions: Homo sapiens, Fibroblast, 336 h, read-out: Normal IC50
Protocol: as §1

[6] = system: DLD-1-BAG human colon carcinoma cells; assay: Cell mat assay, DLD-1-BAG tumor cells; assay type: cell-based; conditions: Homo sapiens, DLD-1, 336 h, read-out: Tumor (DLD-1) IC50
Protocol: as §1, §2

[7] = system: T24-BAG4 human bladder carcinoma cells expressing an activated H-ras gene; assay: Cell mat assay, T24-BAG4 tumor cells; assay type: cell-based; conditions: Homo sapiens, 336 h, read-out: Tumor (T-24) IC50
Protocol: as §1

[8] = Experiment No. 1, 50 mg/kg p.o., QID, 7 days per week for 4 weeks
[9] = Experiment No. 2, 10 mg/kg p.o., QID, 7 days per week for 4 weeks
[10] = Experiment No. 3, 50 mg/kg p.o., QID, 7 days per week for 4 weeks
[11] = Experiment No. 4, 10 mg/kg p.o., QID, 7 days per week for 4 weeks

Structure (SMILES): O=C(Cc1cc[n+]([O-])cc1)N1CCC(=C2c3ncc(Br)cc3CCc3cc(Cl)cc(Br)c32)CC1 (racemic) [Example 7]
inhibition in vivo at 50 mg/kg [1, 8]: 76.5%
inhibition in vivo at 10 mg/kg [1, 9]: 35.1%

Structure (SMILES): NC(=O)N1CCC(CC(=O)N2CCN(C3c4ncc(Br)cc4CCc4cc(Cl)cc(Br)c43)CC2)CC1 (single isomer, unassigned) [Example 12B]
inhibition in vivo at 50 mg/kg [1, 8]: 83%
inhibition in vivo at 10 mg/kg [1, 9]: 37.7%

IC50 ([2]; Mat assay, 14 d, read-out: Tumor (SW620) IC50): > 1.6 µM
Structure (SMILES): NC(=O)N1CCC(CC(=O)N2CCC(C3c4ccc(Cl)c(Br)c4CCc4cc(Br)cnc43)CC2)CC1 (single isomer, unassigned) [Example 13]
inhibition in vivo at 50 mg/kg [1, 8]: 61%
inhibition in vivo at 10 mg/kg [1, 9]: 7%

IC50 ([3]; Table 1, Ras-CVLS substrate, 30 minutes at room temperature, read-out: FPT IC50): < 0.0031 µM
Structure (SMILES): O=C(Cc1cc[n+]([O-])cc1)N1CCC(C2c3ccc(Cl)c(Br)c3CCc3cc(Br)cnc32)CC1 (single isomer, unassigned) [Example 14A · HCl salt]

Structure (SMILES): O=C(Cc1cc[n+]([O-])cc1)N1CCC(C2c3ccc(Cl)c(Br)c3CCc3cc(Br)cnc32)CC1 (single isomer, unassigned) [Example 14A]
inhibition in vivo at 50 mg/kg [1, 8]: 59%
inhibition in vivo at 10 mg/kg [1, 9]: 48%

Structure (SMILES): NC(=O)N1CCC(CC(=O)N2CCC(C3c4ccc(Cl)cc4C=Cc4cc(Br)cnc43)CC2)CC1 (stereo not shown) [Example 1]
inhibition in vivo at 50 mg/kg [1, 8]: 38.2%
inhibition in vivo at 10 mg/kg [1, 9]: 17.2%
inhibition in vivo at 50 mg/kg [1, 10]: 35.4%
inhibition in vivo at 10 mg/kg [1, 11]: 34%

Structure (SMILES): NC(=O)N1CCC(CC(=O)N2CCC(C3c4ccc(Cl)cc4CCc4cc(Br)cnc43)CC2)CC1 (stereo not shown) [Example 4]
inhibition in vivo at 50 mg/kg [1, 8]: 41%
inhibition in vivo at 10 mg/kg [1, 9]: 18%
inhibition in vivo at 50 mg/kg [1, 10]: 41%
inhibition in vivo at 10 mg/kg [1, 11]: 14%

Structure (SMILES): O=C(Cc1cc[n+]([O-])cc1)N1CCN([C@H]2c3ccc(Cl)c(Br)c3CCc3cc(Br)cnc32)CC1 [Example 5 · HCl salt]
IC50 [4]: 0.01 µM

Structure (SMILES): O=C(Cc1cc[n+]([O-])cc1)N1CCN([C@@H]2c3ccc(Cl)c(Br)c3CCc3cc(Br)cnc32)CC1 [Example 5A]
IC50 [5]: > 25 µM
IC50 ([2]; read-out: Tumor (SW620) IC50, Mat assay, 14 d): > 25 µM
IC50 [6]: 12.5 µM
IC50 [7]: 12.5 µM
IC50 [3]: > 0.099 µM

Structure (SMILES): O=C(Cc1cc[n+]([O-])cc1)N1CCN([C@H]2c3ccc(Cl)c(Br)c3CCc3cc(Br)cnc32)CC1 [Example 5]
inhibition in vivo at 10 mg/kg [1]: 24%
inhibition in vivo at 50 mg/kg [1]: 38%

Structure (SMILES): NC(=O)N1CCC(CC(=O)N2CCN([C@H]3c4ccc(Cl)c(Br)c4CCc4cc(Br)cnc43)CC2)CC1 [Example 6]
inhibition in vivo at 50 mg/kg [1, 8]: 61.2%
inhibition in vivo at 10 mg/kg [1, 9]: 35.4%
